In experiment [1] the test system is intestinal villi hypoxia. The experiment can be described thus: Hypoxia staining (pimonidazole, Hypoxyprobe-1) of intestinal villi, rat SAO model. Format: in vivo. The settings on record: SAO 30 min; lumenal injection 30 min prior. The protocol: (§1) Male Wistar rats (250-300 g, Harlan Sprague Dawley Inc, Indianapolis, Ind.) were randomly assigned to each group (n=4 per group). Rats were kept on solid food restriction for 12 hours prior to surgery with water ad libitum. […] Sham groups were treated the same with the arteries separated but not ligated.
(§2) Perfluorocarbon groups: Perfluorodecalin (PFC) (Sigma-Aldrich, St Louis, Mo.) with oxygen, previously bubbled into the solution for 10 min, was injected into the lumen of the intestine 30 min prior SHAM or SAO surgery (SHAM+PFC+O2, SAO+PFC+O2). PFC without oxygen bubbled into the solution was injected 30 min prior SHAM or SAO surgery (SHAM+PFC, SAO+PFC).
(§3) ATP-MgCl2 groups: ATP-MgCl2 (Sigma-Aldrich), 25 mg/kg BW was injected in the lumen of the intestine 30 min prior to SHAM or SAO surgery (SHAM+ATP, SAO+ATP).
(§4) pH groups: Acidic saline (pH 5.5) injected in the lumen of the intestine 30 min prior SHAM surgery or HEPES buffer (20 mM) injected into the lumen of the intestine 30 min prior to SHAM or SAO surgery.
(§5) Free radicals groups: The hydroxyl radical scavenger, dimethylthiourea (DMTU, Sigma-Aldrich; 2.0 mg/g BW) was injected in the lumen of the intestine 30 min prior to SAO (SAO+DMTU).
Hypoxia staining: In separate experiments tissue hypoxia was detected with Hypoxyprobe™-1 Kit (Natural Pharmacia International, Burlington, Mass., USA). This method utilizes a small molecular marker, pimonidazole, which after intravenous injection forms adducts with thiol containing proteins only in oxygen-starved cells. After general anesthesia as described above, pimonidazole-HCl (6 mg/100 g) was injected intravenously 30 min before SAO or SHAM; at 30 min the animal was euthanized and the jejuna section removed, embedded in O.C.T and frozen in liquid nitrogen. Then cryosections were immunostained using a rabbit antibody that binds to protein adducts of pimonidazole in hypoxic cells.

Experiment [2] deals with mucin2. Description: Mucin2 fluorescent staining of jejunal sections, rat SAO model. The experiment is classed as in vivo. The note with it: SAO 30 min, lumenal injection 30 min prior; for villi injury / villus structure: micrographs. The protocol: as §1, §2, §3, §4, §5
(§6) Tissue cryosections: After euthanasia, jejunal sections (˜1 cm in length) were excised without removal of lumenal contents and suspended in Tissue-Tek O.C.T. Compound (Sakura Finetek, Torrance, Calif.), snap frozen in isopentane/liquid nitrogen, and stored at −80° C. for analysis. Cryosections (5 μm thickness) along the longitudinal axis of the villi were used throughout all experiments. Cryosections were fixed in 10% formalin solution and processed in a non-blinded fashion.
(§7) Mucin and lectin staining: The simultaneous visualization of lectins and mucin was carried out using Lectin GS-II from Griffonia simplicifolia, Alexa Fluor® 594 Conjugate (EnzChek®, Invitrogen, Carlsbad, Calif.) and specific antibody for mucin2 with FITC secondary antibody 1:10000 (Santa Cruz Biotechnology) and nuclei counterstaining with DAPI. Sections were observed on an inverted microscope (20× objective) using the appropriate fluorescent filters.

Experiment [3] deals with lectin staining (carbohydrate portion of mucin). The experiment can be described thus: Lectin fluorescent staining (carbohydrate portion of mucin) of jejunal sections, rat SAO model. Format: in vivo. The note with it: SAO 30 min; lumenal injection 30 min prior. The method, then: as §1, §2, §3, §4, §5, §6, §7
Experiment [4] concerns mucin13. Description: Western blot for mucin13 of intestine homogenates, rat SAO model. Format: in vivo. The note with it: SAO 30 min, lumenal injection 30 min prior. The method, then:
as §1, §2, §3, §4, §5
(§8) Homogenates of intestine and lumenal contents: Jejunal segments were excised without removal of lumenal contents. For enzyme activity measurements, segments of intestine were homogenized with CelLytic™ (Sigma-Aldrich) without addition of protease inhibitors. For Western blot assays the intestine segments were homogenized as above in the presence of protease inhibitors (5 mM EDTA, 5 mM N-Ethylmaleimide, 25 mM iodoacetamide, 5 mM benzamidine, 300 mM acarbose, 5 mM 6-aminocaproic acid, 1 mM protease inhibitor cocktail, (Sigma-Aldrich). In separate experiments the small intestine of sham animals was excised, and the lumenal contents were flushed with 20 ml saline. Homogenates or lumenal contents were centrifuged (16,000 g for 15 min at 4° C.), the supernatant was collected and protein concentration was assessed with the bicinchoninic acid protein assay (Thermo Scientific).
(§9) Western blot: 20 μg of tissue homogenate were separated by SDS-PAGE. Membranes were incubated with primary antibodies as follows: mucin2, mucin13 and trypsin 1:1000 (Santa Cruz Biotechnology), pancreatic amylase 1:1000 (GeneTex, San Antonio, Tex.), intra- and extra-cellular domains of E-cadherin and TLR4 1:1000 (Abcam), intracellular domain of TLR4 1:1000 (Invitrogen). Secondary antibodies were diluted 1:20000 (Santa Cruz Biotechnology) and detected with Super Signal West Pico (Thermo Scientific). The exposed x-ray films were scanned and label intensity was measured using digital gel analysis (NIH ImageJ software).

The subject of experiment [5] is trypsin activity in the intestinal wall. The experiment can be described thus: In-situ zymography for trypsin activity in jejunal cryosections, rat splanchnic arterial occlusion (SAO) model. Format: in vivo. The note with it: lumenal injection 30 min prior. The protocol:
as §1
Control groups: Animals with saline injection into the lumen of the intestine, 3 ml/100 g Body Weight (BW), 30 min prior to SHAM or SAO surgery.
as §2
ATP-MgCl2 groups: ATP-MgCl2 (Sigma-Aldrich), 25 mg/kg BW was injected in the lumen of the intestine 30 min prior to SHAM or SAO surgery (SHAM+ATP, SAO+ATP). […]
After 30 min SAO or sham surgery, the animals were euthanized (Beuthanasia®; 0.22 ml/kg BW, IV).
as §6
In-situ tissue zymography: In-situ zymography for trypsin activity in cryosections was assessed by measurement of fluorescence resulting from the proteolytic cleavage of the substrate (1 mM, Na-benzoyl-L-arginine-7-amido-methylcoumarin hydrochloride; Sigma-Aldrich) as described elsewhere with propidium iodine counterstaining (Sigma-Aldrich) (9). Slides were observed under an inverted microscope (20× and 60× objectives).

In experiment [6] the test system is mucin2. Description: Western blot for mucin2 of intestine homogenates, rat SAO model. Format: in vivo. The note with it: SAO 30 min, lumenal injection 30 min prior. The method, then:
as §1, §2, §3, §4, §5, §8, §9

For experiment [7], the system named is ATP concentration in intestine homogenates. The experiment can be described thus: ATP assay in intestine homogenates, rat SAO model. Format: in vivo. The settings on record: SAO 30 min; lumenal injection 30 min prior. The protocol: as §1, §2, §3, §4, §5
ATP assay: ATP concentrations in intestine homogenates were measured using ATP fluorometirc assay kit (BioVision, Mountain View, Calif.) according to manufacturer's protocol. Briefly jejuna sections were homogenized with perchloric acid (BioVision), centrifuged at 15,000×G for 5 min at 4° C. Samples were mixed with ATP reaction mix, incubated for 30 min protected from light and the fluorescence was measured with 535/587 (Ex/Em).

In experiment [8] the test system is ischemic intestine. The experiment can be described thus: Rat model with severe ischemic intestine (30 min ischemia), enteral oxygen carrier. The experiment is classed as in vivo. The settings on record: 7 ml for 230 g rat, saturated for 10 min in oxygen. The protocol:
The case was illustrated in a model with 30 min ischemia with Perfluorodecalin solution (7 ml for 230 g rat) saturated for 10 min in oxygen.

The test system of experiment [9] is MDA equivalents (TBARS) in jejunal homogenates. Description: Thiobarbituric Acid Reactive Substances (TBARS) assay, rat SAO model. The experiment is classed as in vivo. The settings on record: SAO 30 min; lumenal injection 30 min prior. The protocol: as §1, §2, §3
pH groups: Acidic saline (pH 5.5) injected in the lumen of the intestine 30 min prior SHAM surgery or HEPES buffer (20 mM) injected into the lumen of the intestine 30 min prior to SHAM or SAO surgery. […]
TBARS assay: Thiobarbituric Acid Reactive Substances (TBARS) was measured using the TBARS assay kit (Zeptometrix, Buffalo, N.Y.) according to manufacturer's protocol. […] Samples were centrifuged at 3000 rpm for 15 min and the supernatant were read at 530/550 (Ex/Em).

Experiment [10] relates to E-cadherin. Description: Western blot of intra- and extracellular domains of E-cadherin in IEC-18 cells. The experiment is classed as cell-based. The settings on record: trypsin 50 μM. The protocol: (§10) To investigate whether mucin provides a barrier against trypsin transport, IEC-18 cells (on Transwell plates) were coated with and without a mucin film (400 μm, 10%, porcine stomach). FITC-dextrans (20 kDa, 5 mg/ml) with and without trypsin (50 μM) was added to the apical side and the rate of FITC accumulation on the basal side over 60 min was measured. To determine if trypsin cleaves the adherent junctions of the epithelium, it was measured by Western blot the levels of intra- and extracellular domains of E-cadherin. […] Thus, mucin protects against trypsin-mediated increases in intestinal epithelial permeability.

The test system of experiment [11] is IEC-18 cells. Description: FITC-dextran permeability of IEC-18 cells on Transwell plates with and without mucin film. Format: cell-based. The settings on record: trypsin 50 μM. The method, then:
as §10

Where [12] appears, read: listed as deoxygenated perfluorcarbon.

“Also recorded” adds a separate entry of the source.

As to `CNC(=S)NC` [DMTU, dimethylthiourea, reference compound], in experiment [1], the hypoxia staining levels result is on record as “significantly low levels of hypoxia staining as compared to SAO”. Besides, in experiment [2], the mucin2 staining levels result is recorded as “no significant change in mucin2 staining levels” and the “villi injury / villus structure” value is on record as “undetectable villi injury”. The lectin staining levels result in experiment [3] is on record as “lower levels of lectin labeling as compared to SHAM; also recorded: decrease in lectin staining”. Moreover, the “mucin13 protein levels / 17 kDa fragment (Western blot)” value in [4] is reported as “no appearance of the lower molecular weight band at 17 kDA; also recorded: preservation of mucin13 protein levels”. The “trypsin activity in the intestinal wall” value in experiment [5] (SAO 30 min) was “undetectable levels of trypsin activity; also recorded: reduced trypsin activity in the intestinal wall”. Also, the “mucin2 protein levels (relative density, Western blot)” value in [6] was “reduced levels of mucin2; also recorded: reduction in mucin2 protein levels”. For the same molecule, the “ATP concentration in intestinal tissue homogenates” value (“ATP concentration” for short) in experiment [7] was “lower than SHAM and higher than SAO but it was not statistically significant”.

In the case of `O=S(=O)(O)CCN1CCN(CCO)CC1` [HEPES buffer, HEPES], the hypoxia staining levels result in [1] was “significantly higher than the SHAM and SHAM-HEPES groups as well as the SAO group”. For the same molecule, in experiment [2], the mucin2 staining levels entry is “significantly lower as compared to SHAM, and they were also significantly higher than SAO”; the “villi injury / villus structure” value is given as “did not have signs of villi injury”. Also, the lectin staining levels entry in [3] is “lower as compared to SHAM”. Besides, the “mucin13 protein levels / 17 kDa fragment (Western blot)” value in [4] was “no degradation of mucin13”. Moreover, the “trypsin activity in the intestinal wall” value in experiment [5] (SAO 30 min) is given as “Low levels of trypsin activity”. Further, the “trypsin activity in the intestinal wall” value in experiment [5] (SHAM surgery) is on record as “minimal trypsin activity”. In [6], the “mucin2 protein levels (relative density, Western blot)” value is “no significant decrease in mucin2 molecule”. For the same molecule, the “ATP concentration” value in experiment [7] is “significantly higher than SAO and similar to sham groups”.

Turning to `FC1(F)C(F)(F)C(F)(F)C2(F)C(F)(F)C(F)(F)C(F)(F)C(F)(F)C2(F)C1(F)F` (stereo not shown) [deoxygenated perfluorocarbon, Perfluorodecalin, reference compound], the hypoxia staining levels result in experiment [1] was “highest levels of hypoxia staining”. Also, the mucin2 staining levels result in [2] was “significantly lower”. Besides, the lectin staining levels result in [3] is “significantly lower”. The “mucin13 protein levels / 17 kDa fragment (Western blot)” value in experiment [4] (setting [12]) is “presented the lower molecular weight fragments at 17 kDa”. The “trypsin activity in the intestinal wall” value in experiment [5] (SAO 30 min) is “High levels of trypsin activity”; in [5] (SHAM surgery) it was “minimal trypsin activity”. In addition, the “mucin2 protein levels (relative density, Western blot)” value in [6] (setting [12]) was “reduced in the SAO group (SAO+PFC) as compared to sham (SHAM+PFC)”. Further, in [7], the “ATP concentration” value is reported as “significantly decreased”.

Regarding `FC1(F)C(F)(F)C(F)(F)C2(F)C(F)(F)C(F)(F)C(F)(F)C(F)(F)C2(F)C1(F)F` (stereo not shown) [oxygenated perfluorocarbon, Perfluorodecalin], in experiment [2], the mucin2 staining levels result was “significantly higher as compared to SAO and SAO-PFC”. In experiment [2], the “villi injury / villus structure” value is reported as “preserve the villus structure”. Moreover, in [3], the lectin staining levels entry was “significantly higher as compared to SAO and SAO-PFC”. Further, in [4], the “mucin13 protein levels / 17 kDa fragment (Western blot)” value is “complete disappearance or very faint levels of the 17 kDa band; also recorded: reduces mucin2 and mucin13 degradation”. Moreover, the “trypsin activity in the intestinal wall” value in experiment [5] (SAO 30 min) is “prevents the appearance of trypsin activity inside the intestinal wall”; in [5] (SAO 30 min, listed as oxygenated perfluorcarbon), “undetectable levels of trypsin activity”; in experiment [5] (SHAM surgery), “minimal trypsin activity”. For the same molecule, in [8], the intestinal damage entry is listed as “minimize intestinal damage”. Also, the “levels of MDA equivalents (TBARS)” value in experiment [9] is “significantly lower as compared to SAO or SAO+PFC”. Moreover, the “mucin2 protein levels (relative density, Western blot)” value in experiment [6] is “mucin2 density levels similar to the sham; also recorded: reduces mucin2 and mucin13 degradation”. Further, the “ATP concentration” value in experiment [7] was “no reduction of ATP concentration”.

In the case of mucin, in experiment [10] (mucin film present), the E-cadherin cleavage result was “cleavage is reduced”. Also, the “decrease of epithelial permeability (FITC-dextran 20 kDa accumulation on basal side over 60 min)” value in experiment [11] (mucin film present (400 μm, 10%, porcine stomach), p<0.05) is reported as 30%.

Regarding trypsin, in [10] (without a mucin film), the E-cadherin cleavage result is “cleaved”. In addition, the “increase of epithelial permeability (FITC-dextran 20 kDa accumulation on basal side over 60 min)” value in experiment [11] (without a mucin film) is 42%.

The record behind these values is US20150010644A1, “OXYGENATION OF THE MUCOSAL BARRIER BY ENTERAL ARTIFICIAL BLOOD TO PREVENT HYPOXIC BREAKDOWN OF THE MUCOSAL BARRIER” (THE REGENTS OF THE UNIVERSITY OF CALIFORNIA, priority 2011, published 2015).
